How the values were obtained:
VCAP cells = experiment: Cell proliferation assay and combination benefit calculation, VCAP; assay type: cell-based; conditions: Homo sapiens, 168 h, monotherapy, 7 days after treatment
Experimental: (§1) Cell line identification was validated using the CellCheck assay (IDEXX Bioanalytics, Westbrook, ME, USA). All cell lines were validated free of virus Mycoplasma contamination using the MycoSEQ assay (Thermo Fisher Scientific, Waltham, MA, USA) or STAT-Myco assay (IDEXX Bioanalytics). All cell lines were grown RPMI-1640 growth media (Corning 17-105-CV) supplemented with 10% fetal bovine serum (FBS) or, when indicated, 10% charcoal stripped FBS (ThermoFisher Scientific, 12676029) and 2 mM glutamine.
(§2) Cells in 384-well or 96-well plates were dosed using an Echo 555 (LabCyte, San Jose, CA, USA) or using the HP D300e Digital Dispenser (HP Life Science Dispensing), respectively.
(§3) Live cell count pre- and post-treatment (7 days after treatment) was determined using CellTiter-Glo as per manufacturer's instructions (Promega, Madison, WI, USA; G7570).
(§4) Cell viability was determined with the Sytox Green assay as described in Davies 2012 and the AC50 calculated. The HSA (Highest Single Agent) Synergy Score was calculated according to Bernenbaum 1989.

C901 tumours = experiment: In vivo pre-clinical model C901 patient derived xenograft (PDX); conditions: 21 days, NMRI Nude mice, vs vehicle
Experimental: C901 patient derived xenograft (PDX) model was engrafted subcutaneously onto the flank of donor mice and monitored once a week until ethical size (1000-2000 mm^3). When donor tumours reached ethical size, PDX fragments measuring approximately 20 mm^3 were engrafted in the study mice (male NMRI Nude mice, aged 6-9 weeks, supplied by Janvier labs).
The mice were dosed for 21 days, with the dose calculated for individual animals on day of dosing, and with a […] dosing volume.
Tumours were measured ×2 per week using digital calipers. The length and width of the tumour will be measured and volume calculated using the following formula: […]
The bodyweight of all mice in the study was measured and recorded 2 times per week; this information was used to calculate precise dosing for each animal.

LnCAP cells = experiment: Cell proliferation assay and combination benefit calculation, LnCAP; assay type: cell-based; conditions: Homo sapiens, monotherapy
Experimental: as §1, §2, §3, §4
(§5) Using the method of example 1, these ATM-KO cell lines were determined to be sensitive to AZD5305, with an AC50 of 3 nM, in contrast to the parental (or control) LNCAP cell line which is not sensitive to AZD5305 monotherapy, with an AC50 greater than 10 μM.
(§6) The HSA (Highest Single Agent) Synergy Score was calculated according to Bernenbaum 1989 when the AZD5305 and enzalutamide were used in combination.

ATM-KO LNCAP cells = experiment: Cell proliferation assay and synergy in isogenic ATM-KO LNCAP cells; assay type: cell-based; conditions: monotherapy; for AC50: Homo sapiens, LNCaP
Experimental: as §2, §3, §4
An isogenic ATM-KO model in LNCAP cells was generated with CRISPR-Cas9 technology.
as §5, §6

C4-2 cells = experiment: Cell proliferation assay and combination benefit calculation, C4-2; assay type: cell-based; conditions: 168 h, monotherapy, 7 days after treatment
Experimental: as §1, §2, §3, §4

LNCaP tumours = experiment: In vivo pre-clinical model LNCaP (subcutaneous xenograft); conditions: 42 days, NOD SCID mice, vs vehicle
Experimental: LNCaP cells (1×10^7 cells 1:1 in Matrigel) were implanted subcutaneously onto the flank of male NOD SCID mice (aged 5-8 weeks weighing approximately 25-30 g, supplied by Charles River) using a 23-gauge needle.
The mice were dosed for 42 days, with the dose calculated for individual animals on day of dosing, and with a […] dosing volume.
Tumours were measured ×3 per week using digital calipers. The length and width of the tumour will be measured and volume calculated using the following formula: […]
The bodyweight of all mice in the study was measured and recorded 3 times per week; this information was used to calculate precise dosing for each animal.

CWR22Pc-R1-AD1 cells = experiment: Cell proliferation assay and combination benefit calculation, CWR22Pc-R1-AD1; assay type: cell-based; conditions: 168 h, monotherapy, 7 days after treatment
Experimental: as §1, §2, §3, §4

[1] = 168 h, LnCAP, 7 days after treatment
[2] = LnCAP parental (control), Example 2

## CNC(=O)c1ccc(N2C(=S)N(c3ccc(C#N)c(C(F)(F)F)c3)C(=O)C2(C)C)cc1F [Enzalutamide, 4-(3-(4-cyano-3-(trifluoromethyl)phenyl)-5,5-dimethyl-4-oxo-2-thioxoimidazolidin-1-yl)-2-fluoro-N-methylbenzamide]
VCAP cells
  AC50: 2.94 µM
C901 tumours; enzalutamide 60 mg/kg QD
  TGI: 92%
LnCAP cells; [1]
  AC50: 1.41 µM
LnCAP cells; [2]
  AC50: > 10 µM
ATM-KO LNCAP cells; LnAP-ATM-KO-CL.1
  AC50: > 10 µM
ATM-KO LNCAP cells; the cell lines of Example 2 (LNCAP parental and ATM-KO)
  Sensitivity of the cell lines: No sensitivity could be measured
C4-2 cells
  AC50: 8.33 µM
LNCaP tumours; enzalutamide 4 mg/kg QD
  tumour growth inhibition (TGI): no or minimal (4%)
CWR22Pc-R1-AD1 cells
  AC50: 9.59 µM

## CCc1cc2ncc(CN3CCN(c4ccc(C(=O)NC)nc4)CC3)cc2[nH]c1=O [AZD5305, 5-{4-[(7-ethyl-6-oxo-5,6-dihydro-1,5-naphthyridin-3-yl)methyl]piperazin-1-yl}-N-methylpyridine-2-carboxamide]
VCAP cells
  AC50: 1.6 µM
C901 tumours; AZD5305 1 mg/kg QD
  TGI: 90%
LnCAP cells; [1]
  AC50: 12 µM
LnCAP cells; [2]
  AC50: > 10 µM
ATM-KO LNCAP cells; ATM-KO cell lines (clone.1 and clone.2)
  AC50: 0.003 µM
C4-2 cells
  AC50: 20 µM
LNCaP tumours; AZD5305 1 mg/kg QD
  tumour growth inhibition (TGI): no or minimal (4%)
CWR22Pc-R1-AD1 cells
  AC50: 0.0316 µM
